Results: PubChem BioAssay AID330 (DTP/NCI, 2004)
Where “and” joins values, the source holds several entries; their conditions need not be identical. Equal entries are not always repeated. Toxic doses and inconclusive results are not listed.

Tested on: P388 leukemia ip, CD2F1 mice, survival T/C
Assay: NCI In Vivo Anticancer Drug Screen. Data for tumor model P388 Leukemia (intraperitoneal) in CD2F1 (CDF1) mice
Details: endpoint: median survival time, higher = longer survival
How it was run: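 Mice carrying the transplanted tumor received test compound or vehicle. Survival was recorded in each group, and the value is the treated-group measurement divided by that of the vehicle-treated control group.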

[1] = dose: 50.0 mg/kg/injection, schedule: Q01DX009 (ip), vehicle: Klucel (hydroxypropylcellulose) (HPC)
[2] = dose: 100.0 mg/kg/injection, schedule: Q01DX009 (ip), vehicle: Klucel (hydroxypropylcellulose) (HPC)
[3] = dose: 200.0 mg/kg/injection, schedule: Q01DX009 (ip), vehicle: Klucel (hydroxypropylcellulose) (HPC)
[4] = dose: 50.0 mg/kg/injection, schedule: Q01DX005 (ip), vehicle: saline with Tween-80
[5] = dose: 100.0 mg/kg/injection, schedule: Q01DX005 (ip), vehicle: saline with Tween-80
[6] = dose: 200.0 mg/kg/injection, schedule: Q01DX005 (ip), vehicle: saline with Tween-80
[7] = dose: 50.0 mg/kg/injection, schedule: Q01DX009 (ip), vehicle: saline with Tween-80
[8] = dose: 12.5 mg/kg/injection, schedule: Q01DX005 (ip), vehicle: Klucel (hydroxypropylcellulose) (HPC)
[9] = dose: 25.0 mg/kg/injection, schedule: Q01DX005 (ip), vehicle: Klucel (hydroxypropylcellulose) (HPC)
[10] = dose: 60.0 mg/kg/injection, schedule: Q01DX005 (ip), vehicle: saline with Tween-80
[11] = dose: 100.0 mg/kg/injection, schedule: Q01DX009 (ip), vehicle: saline with Tween-80

With CCC1(O)CC(OC2CC(NC)C(OC3CC(O)C(OC4CC(O)C(O)C(C)O4)C(C)O3)C(C)O2)c2c(cc3c(c2O)C(=O)c2c(O)ccc(O)c2C3=O)C1C(=O)OC (stereo not drawn) the T/C (dose: 3.13 mg/kg/injection, schedule: Q04DX003 (ip), vehicle: Klucel (hydroxypropylcellulose) (HPC)) was 115 % of control, the T/C (dose: 6.25 mg/kg/injection, schedule: Q04DX003 (ip), vehicle: Klucel (hydroxypropylcellulose) (HPC)) was 118 % of control and the T/C (dose: 12.5 mg/kg/injection, schedule: Q04DX003 (ip), vehicle: Klucel (hydroxypropylcellulose) (HPC)) was 115 % of control.
With COc1ccc(CCN2C(=O)C(=O)N(C3CCCCC3)C2=O)cc1OC the T/C [1] was 93 % of control, the T/C [2] was 95 % of control and the T/C [3] was 100 % of control.
In the case of COC1CCC(NC(C)=O)C(C2CCCCC2)C1 (stereo not drawn), the T/C [4] is reported as 99 % of control, the T/C [5] is reported as 94 % of control and the T/C [6] is reported as 91 % of control.
For O=[N+]([O-])c1ccc(S/N=C\c2ccccc2)c([N+](=O)[O-])c1, the T/C [7] was 97 % of control.
With Cc1ccc(S(=O)(=O)N/N=C/c2ccc(O)c(S(=O)(=O)O)c2)cc1 the T/C (dose: 12.5 mg/kg/injection, schedule: Q01DX009 (ip), vehicle: water) was 97 % of control, the T/C (dose: 25.0 mg/kg/injection, schedule: Q01DX009 (ip), vehicle: water) was 101 % of control and the T/C (dose: 50.0 mg/kg/injection, schedule: Q01DX009 (ip), vehicle: water) was 101 % of control. The T/C (dose: 100.0 mg/kg/injection, schedule: Q01DX009 (ip), vehicle: water) was 110 % of control and the T/C (dose: 200.0 mg/kg/injection, schedule: Q01DX009 (ip), vehicle: water) was 99 % of control.
With O=C(Cc1ccccc1)Nc1ncc([N+](=O)[O-])s1 the T/C [1] was 116 % of control, the T/C [2] was 106 % of control and the T/C [3] was 100 % of control.
O=C1c2ccccc2C(=O)c2c1ccc1c2OCO1 was tested, and the T/C (dose: 5.0 mg/kg/injection, schedule: Q01DX005 (ip), vehicle: Klucel (hydroxypropylcellulose) (HPC)) was 96 % of control, the T/C (dose: 10.0 mg/kg/injection, schedule: Q01DX005 (ip), vehicle: Klucel (hydroxypropylcellulose) (HPC)) was 87 % of control and the T/C (dose: 20.0 mg/kg/injection, schedule: Q01DX005 (ip), vehicle: Klucel (hydroxypropylcellulose) (HPC)) was 86 % of control and 88 % of control. For the same compound, the T/C (dose: 40.0 mg/kg/injection, schedule: Q01DX005 (ip), vehicle: Klucel (hydroxypropylcellulose) (HPC)) was 95 % of control.
With Nc1ccn(C2OC(COP(=O)(O)O)C(O)C2O)c(=O)n1 (stereo not drawn) the T/C (dose: 100.0 mg/kg/injection, schedule: Q04DX003 (ip), vehicle: saline with Tween-80) was 150 % of control, the T/C (dose: 264.0 mg/kg/injection, schedule: Q04DX003 (ip), vehicle: saline with Tween-80) was 181 % of control and the T/C (dose: 400.0 mg/kg/injection, schedule: Q04DX003 (ip), vehicle: saline with Tween-80) was 166 % of control and 177 % of control. The T/C (dose: 600.0 mg/kg/injection, schedule: Q04DX003 (ip), vehicle: saline with Tween-80) was 209 % of control.
With Cc1ccc(C(=O)Cc2ccccc2C#N)cc1 the T/C [8] was 102 % of control and 103 % of control, the T/C [9] was 88 % of control and 97 % of control and the T/C (dose: 50.0 mg/kg/injection, schedule: Q01DX005 (ip), vehicle: Klucel (hydroxypropylcellulose) (HPC)) was 97 % of control. For the same compound, the T/C (dose: 100.0 mg/kg/injection, schedule: Q01DX005 (ip), vehicle: Klucel (hydroxypropylcellulose) (HPC)) was 105 % of control.
Nc1ccc(N)cc1 was tested, and the T/C (dose: 5.0 mg/kg/injection, schedule: Q01DX009 (ip), vehicle: saline with Tween-80) was 95 % of control, the T/C (dose: 5.0 mg/kg/injection, schedule: Q04DX003 (ip), vehicle: saline with Tween-80) was 104 % of control and the T/C (dose: 10.0 mg/kg/injection, schedule: Q01DX009 (ip), vehicle: saline with Tween-80) was 100 % of control. The T/C (dose: 10.0 mg/kg/injection, schedule: Q04DX003 (ip), vehicle: saline with Tween-80) was 104 % of control, the T/C (dose: 20.0 mg/kg/injection, schedule: Q01DX009 (ip), vehicle: saline with Tween-80) was 100 % of control and the T/C (dose: 20.0 mg/kg/injection, schedule: Q04DX003 (ip), vehicle: saline with Tween-80) was 104 % of control.
With CCCCCCCCCCCCCC[N+](C)(CC(=O)[O-])Cc1ccccc1 (stereo not drawn) the T/C (dose: 15.0 mg/kg/injection, schedule: Q01DX005 (ip), vehicle: saline with Tween-80) was 108 % of control, the T/C (dose: 30.0 mg/kg/injection, schedule: Q01DX005 (ip), vehicle: saline with Tween-80) was 93 % of control and the T/C [10] was 101 % of control.
For COC(=O)c1cc(=O)nc(NN)s1, the T/C [4] was 92 % of control and the T/C [5] was 90 % of control.
For O=C(c1ccccc1)c1ccc[n+](Cc2c(Cl)cccc2Cl)c1, the T/C (dose: 6.25 mg/kg/injection, schedule: Q01DX009 (ip), vehicle: saline) was 101 % of control and 98 % of control, the T/C (dose: 12.5 mg/kg/injection, schedule: Q01DX009 (ip), vehicle: saline) was 102 % of control and 105 % of control and the T/C (dose: 25.0 mg/kg/injection, schedule: Q01DX009 (ip), vehicle: saline) was 105 % of control and 111 % of control and 123 % of control. The T/C (dose: 50.0 mg/kg/injection, schedule: Q01DX009 (ip), vehicle: saline) was 108 % of control and 114 % of control and 117 % of control.
With O=C(O)Cc1ccc2c(c1)C(=O)c1ccccc1CO2 the T/C [7] was 94 % of control, the T/C [11] was 103 % of control and the T/C (dose: 200.0 mg/kg/injection, schedule: Q01DX009 (ip), vehicle: saline with Tween-80) was 100 % of control.
COc1cc[n+]([O-])cc1 was tested, and the T/C (dose: 100.0 mg/kg/injection, schedule: Q01DX009 (ip), vehicle: saline) was 95 % of control, the T/C (dose: 200.0 mg/kg/injection, schedule: Q01DX009 (ip), vehicle: saline) was 90 % of control and the T/C (dose: 400.0 mg/kg/injection, schedule: Q01DX009 (ip), vehicle: saline) was 95 % of control.
With CCOC(=O)Nc1ccc2nc(N3CCCCC3)sc2c1 the T/C [7] was 96 % of control and the T/C [11] was 90 % of control.
For COC1=C(OC)C(=O)C2=C(OCCO2)C1=O, the T/C (dose: 25.0 mg/kg/injection, schedule: Q01DX001 (ip), vehicle: saline with Tween-80) was 109 % of control, the T/C (dose: 50.0 mg/kg/injection, schedule: Q01DX001 (ip), vehicle: saline with Tween-80) was 106 % of control and the T/C (dose: 100.0 mg/kg/injection, schedule: Q01DX001 (ip), vehicle: saline with Tween-80) was 107 % of control.
In the case of COc1cc2c(/C=N/NS(=O)(=O)c3ccc(C)cc3)c(Cl)[nH]c2cc1C, the T/C (dose: 12.5 mg/kg/injection, schedule: Q01DX009 (ip), vehicle: Klucel (hydroxypropylcellulose) (HPC)) is reported as 103 % of control, the T/C (dose: 25.0 mg/kg/injection, schedule: Q01DX009 (ip), vehicle: Klucel (hydroxypropylcellulose) (HPC)) is reported as 95 % of control and the T/C [1] is reported as 92 % of control. For the same compound, the T/C (dose: 100.0 mg/kg/injection, schedule: Q01DX001 (ip), vehicle: Klucel (hydroxypropylcellulose) (HPC)) was 100 % of control, the T/C (dose: 200.0 mg/kg/injection, schedule: Q01DX001 (ip), vehicle: Klucel (hydroxypropylcellulose) (HPC)) was 120 % of control and the T/C (dose: 400.0 mg/kg/injection, schedule: Q01DX001 (ip), vehicle: Klucel (hydroxypropylcellulose) (HPC)) was 100 % of control.
For COc1cc2cc(/C(C)=N/OCC3CO3)c(Cl)nc2cc1OC (stereo not drawn), the T/C [4] was 96 % of control, the T/C [5] was 93 % of control and the T/C [6] was 92 % of control.
With CC(C)COC(=O)NC1c2ccccc2Oc2ccccc21 the T/C [4] was 95 % of control, the T/C [5] was 93 % of control and the T/C [6] was 89 % of control.
With Cc1cc(C)c(C#N)c(NN)n1 the T/C (dose: 6.25 mg/kg/injection, schedule: Q01DX005 (ip), vehicle: saline with Tween-80) was 99 % of control and the T/C (dose: 12.5 mg/kg/injection, schedule: Q01DX005 (ip), vehicle: saline with Tween-80) was 103 % of control.
With O=C(Nc1cccc2c1CCCC2)c1cc2ccccc2cc1O the T/C [4] was 92 % of control, the T/C [5] was 91 % of control and the T/C [6] was 91 % of control.
For O=C([O][Sn]([O]C(=O)c1ccccc1)([c]1ccccc1)[c]1ccccc1)c1ccccc1, the T/C (dose: 3.12 mg/kg/injection, schedule: Q01DX005 (ip), vehicle: Klucel (hydroxypropylcellulose) (HPC)) was 111 % of control, the T/C (dose: 6.25 mg/kg/injection, schedule: Q01DX005 (ip), vehicle: Klucel (hydroxypropylcellulose) (HPC)) was 116 % of control and 123 % of control and the T/C [8] was 111 % of control and 123 % of control. For the same compound, the T/C [9] was 151 % of control.
COC(=O)c1nc(NC#N)[nH]c(=O)c1CCCCCc1cnc(NC#N)nc1 was tested, and the T/C [10] was 100 % of control, the T/C (dose: 120.0 mg/kg/injection, schedule: Q01DX005 (ip), vehicle: saline with Tween-80) was 100 % of control and the T/C (dose: 240.0 mg/kg/injection, schedule: Q01DX005 (ip), vehicle: saline with Tween-80) was 97 % of control.
O=C(CNC(=O)OCc1ccccc1)NCC(=O)NC(Cc1c[nH]c2ccccc12)C(=O)O (stereo not drawn) was tested, and the T/C (dose: 50.0 mg/kg/injection, schedule: Q01DX005 (ip), vehicle: suspension in saline) was 99 % of control, the T/C (dose: 100.0 mg/kg/injection, schedule: Q01DX005 (ip), vehicle: suspension in saline) was 97 % of control and the T/C (dose: 200.0 mg/kg/injection, schedule: Q01DX005 (ip), vehicle: suspension in saline) was 105 % of control.
